The nature of the data set: recombinant UMI read abundance after kanamycin selection (control-corrected) (log10(CPM+1)); higher = more efficient recombination; extreme values may be limits of the assay; sequences stand for … in AGTGCAGAGAAAATCGGCCAGTTTTCTCTGCCTGCAGTCCGCATGCCGTGGGACCCCTTGGGTTCTAACCTGTTGCCTAGATTTATGCAGCGGACTGCCTTTCTCCCAAAGTGATAAACCGG…AGGTTGGTTTCACT; site = the 11-nt donor. The essentials: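 Values, expressed as log10(CPM+1), derive from recombinant UMI counts converted to CPM, averaged across replicates and scaled by control-derived factors. Plating was with IPTG (0.07 mM) plus kanamycin or unselected, two replicates each. The screen pooled donor and donor-binding-loop pairs for the IS621 bridge recombinase in Escherichia coli.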
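Further: IS621 bridge recombinase in Escherichia coli cells against a fixed T5 target plasmid.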

Regarding “TGGAATCCATGGACCGGTTTTCCCGGTAATCCGTATTTGTT (site GGGAATCCTAA)”, the “recombinant UMI read abundance (log10)” value stood at 0. As for “TGGAATCCATGGACCGGTTTTCCCGGTAATCCGTATTTGTT (site TGGAATCCTAA)”, the “recombinant UMI read abundance (log10)” value amounted to 0. As for “TGGACGGCATGGACCGGTTTTCCCGGTAATCCGTATTTGGC (site TGGACGGCTGC)”, the figure is 1.89; as for “TGGACGGCATGGACCGGTTTTCCCGGTAATCCGTATTTGGC (site TGGCCGGCTGC)”, 0.327; as for “TGGACGGCATGGACCGGTTTTCCCGGTAATCCGTATTTGGC (site TGGGCGGCTGC)”, 0. Take “TGGACGGCATGGACCGGTTTTCCCGGTAATCCGTATTTGGC (site TGGTCGGCTGC)”: the “recombinant UMI read abundance (log10)” value amounted to 0.392. With “TGGACGTCATGGACCGGTTTTCCCGGTAATCCGTATTTGTT (site TGGACGTCTAA)”, the “recombinant UMI read abundance (log10)” value came out at 0.483.

With “TGGACTACATGGACCGGTTTTCCCGGTAATCCGTATTTGAC (site AGGACTACTGT)”, the “recombinant UMI read abundance (log10)” value came to 0. As to “TGGACTACATGGACCGGTTTTCCCGGTAATCCGTATTTGAC (site CGGACTACTGT)”, the “recombinant UMI read abundance (log10)” value turned out to be 0.

Take “TGGACTACATGGACCGGTTTTCCCGGTAATCCGTATTTGAC (site GGGACTACTGT)”: the “recombinant UMI read abundance (log10)” value was determined as 0. Take “TGGACTACATGGACCGGTTTTCCCGGTAATCCGTATTTGAC (site TGGACTACTGT)”: the “recombinant UMI read abundance (log10)” value came out at 1.55. Take “TGGACTCCATGGACCGGTTTTCCCGGTAATCCGTATTTGTT (site CGGAATCCTAA)”: the “recombinant UMI read abundance (log10)” value is 0. As for “TGGACTCCATGGACCGGTTTTCCCGGTAATCCGTATTTGTT (site TGGACTCCTAA)”, the “recombinant UMI read abundance (log10)” value came out at 0.214. Consider “TGGAGCTCATGGACCGGTTTTCCCGGTAATCCGTATTTGCG (site TGGAGCTCTCG)”, for which the “recombinant UMI read abundance (log10)” value was found to be 2.13.

For “TGGATACCATGGACCGGTTTTCCCGGTAATCCGTATTTGCG (site TGGATACCTCG)”, the “recombinant UMI read abundance (log10)” value amounted to 0. For “TGGCCTTCATGGACCGGTTTTCCCGGTAATCCGTATTTGGT (site TAGCCTTCTAC)”, the “recombinant UMI read abundance (log10)” value is 0.

For the sequence “TGGCCTTCATGGACCGGTTTTCCCGGTAATCCGTATTTGGT (site TCGCCTTCTAC)”, the “recombinant UMI read abundance (log10)” value amounted to 1.02. For “TGGCCTTCATGGACCGGTTTTCCCGGTAATCCGTATTTGGT (site TGGCCTTCTAC)”, the “recombinant UMI read abundance (log10)” value worked out at 0.00327.

As for “TGGCCTTCATGGACCGGTTTTCCCGGTAATCCGTATTTGGT (site TTGCCTTCTAC)”, the “recombinant UMI read abundance (log10)” value is 0.00662. The same measure for “TGGCTGCCATGGACCGGTTTTCCCGGTAATCCGTATTTGGT (site TGGCTGCCTAC)”: 0.0264; for “TGGGAGTCATGGACCGGTTTTCCCGGTAATCCGTATTTGCC (site AGGGAGTCTGG)”: 0. Consider “TGGGAGTCATGGACCGGTTTTCCCGGTAATCCGTATTTGCC (site CGGGAGTCTGG)”, for which the “recombinant UMI read abundance (log10)” value is 0.

With “TGGGAGTCATGGACCGGTTTTCCCGGTAATCCGTATTTGCC (site GGGGAGTCTGG)”, the “recombinant UMI read abundance (log10)” value is 0.0303.

Turning to “TGGGAGTCATGGACCGGTTTTCCCGGTAATCCGTATTTGCC (site TGGGAGTCTGG)”, the “recombinant UMI read abundance (log10)” value came to 2.34.

In the case of “TGGGGACCATGGACCGGTTTTCCCGGTAATCCGTATTTGCG (site TGGGGACCTCG)”, the “recombinant UMI read abundance (log10)” value stood at 0.00873. On to “TGGGGTACATGGACCGGTTTTCCCGGTAATCCGTATTTGGG (site TGGGGTACTCC)”, for which the “recombinant UMI read abundance (log10)” value amounted to 0.0151.

Regarding “TGGGTACCATGGACCGGTTTTCCCGGTAATCCGTATTTGTT (site TGGGTACCTAA)”, the “recombinant UMI read abundance (log10)” value was found to be 0.0105. As for “TGGGTATCATGGACCGGTTTTCCCGGTAATCCGTATTTGCA (site TGGGTATCTTG)”, the figure is 1.83; as for “TGGGTCCCATGGACCGGTTTTCCCGGTAATCCGTATTTGGT (site TGGGTCCCTAC)”, 0.00844; as for “TGGTAGGCATGGACCGGTTTTCCCGGTAATCCGTATTTGGT (site TGATAGGCTAC)”, 0.0183. As for “TGGTAGGCATGGACCGGTTTTCCCGGTAATCCGTATTTGGT (site TGCTAGGCTAC)”, the figure is 0.00286. Regarding “TGGTAGGCATGGACCGGTTTTCCCGGTAATCCGTATTTGGT (site TGGTAGGCTAC)”, the “recombinant UMI read abundance (log10)” value was determined as 0.848.

With “TGGTAGGCATGGACCGGTTTTCCCGGTAATCCGTATTTGGT (site TGTTAGGCTAC)”, the “recombinant UMI read abundance (log10)” value came to 0.307. With “TGGTGATCATGGACCGGTTTTCCCGGTAATCCGTATTTGGG (site TGGTGATCTCC)”, the “recombinant UMI read abundance (log10)” value was found to be 0.238. Consider “TGGTGGACATGGACCGGTTTTCCCGGTAATCCGTATTTGTT (site TGGTGGACTAA)”, for which the “recombinant UMI read abundance (log10)” value was 0.734. On to “TGGTTATCATGGACCGGTTTTCCCGGTAATCCGTATTTGGT (site TGGTTATCTAC)”, for which the “recombinant UMI read abundance (log10)” value was determined as 1.78.

For the sequence “TGGTTCGCATGGACCGGTTTTCCCGGTAATCCGTATTTGGA (site TGGTTCGCTTC)”, the “recombinant UMI read abundance (log10)” value worked out at 0.00761.

With “TGGTTTCCATGGACCGGTTTTCCCGGTAATCCGTATTTGCA (site TGGTTTCCTTG)”, the “recombinant UMI read abundance (log10)” value stood at 0. As to “TGTAAGACATGGACCGGTTTTCCCGGTAATCCGTATTTGCG (site TGTAAGACTCG)”, the “recombinant UMI read abundance (log10)” value is 0.934. As for “TGTAAGCCATGGACCGGTTTTCCCGGTAATCCGTATTTGAC (site TGTAAGCCTGT)”, the figure is 0.

In the case of “TGTACACCATGGACCGGTTTTCCCGGTAATCCGTATTTGCC (site TGTACACCTGA)”, the “recombinant UMI read abundance (log10)” value amounted to 0. The same measure for “TGTACACCATGGACCGGTTTTCCCGGTAATCCGTATTTGCC (site TGTACACCTGC)”: 0; for “TGTACACCATGGACCGGTTTTCCCGGTAATCCGTATTTGCC (site TGTACACCTGG)”: 0; for “TGTACACCATGGACCGGTTTTCCCGGTAATCCGTATTTGCC (site TGTACACCTGT)”: 0. For the sequence “TGTACAGCATGGACCGGTTTTCCCGGTAATCCGTATTTGAA (site TGTACAGCTTT)”, the “recombinant UMI read abundance (log10)” value was 0.369. In the case of “TGTACCACATGGACCGGTTTTCCCGGTAATCCGTATTTGTA (site TGTACCACTTA)”, the “recombinant UMI read abundance (log10)” value amounted to 0.131. On to “TGTAGACCATGGACCGGTTTTCCCGGTAATCCGTATTTGAC (site TGTAAACCTGT)”, for which the “recombinant UMI read abundance (log10)” value was 0. Take “TGTAGACCATGGACCGGTTTTCCCGGTAATCCGTATTTGAC (site TGTACACCTGT)”: the “recombinant UMI read abundance (log10)” value was found to be 0. As for “TGTAGACCATGGACCGGTTTTCCCGGTAATCCGTATTTGAC (site TGTAGACCTGT)”, the “recombinant UMI read abundance (log10)” value is 0. On to “TGTAGACCATGGACCGGTTTTCCCGGTAATCCGTATTTGAC (site TGTATACCTGT)”, for which the “recombinant UMI read abundance (log10)” value was 0. As for “TGTAGGTCATGGACCGGTTTTCCCGGTAATCCGTATTTGAA (site TGTAGGTCTTT)”, the “recombinant UMI read abundance (log10)” value was determined as 0.238. Consider “TGTAGGTCATGGACCGGTTTTCCCGGTAATCCGTATTTGGT (site TGTAGGTCTAC)”, for which the “recombinant UMI read abundance (log10)” value came out at 0.355.

For “TGTATACCATGGACCGGTTTTCCCGGTAATCCGTATTTGAC (site TGTAAACCTGT)”, the “recombinant UMI read abundance (log10)” value is 0. Consider “TGTATACCATGGACCGGTTTTCCCGGTAATCCGTATTTGAC (site TGTACACCTGT)”, for which the “recombinant UMI read abundance (log10)” value amounted to 0. In the case of “TGTATACCATGGACCGGTTTTCCCGGTAATCCGTATTTGAC (site TGTAGACCTGT)”, the “recombinant UMI read abundance (log10)” value was 0. As to “TGTATACCATGGACCGGTTTTCCCGGTAATCCGTATTTGAC (site TGTATACCTGT)”, the “recombinant UMI read abundance (log10)” value was determined as 0. With “TGTCAGCCATGGACCGGTTTTCCCGGTAATCCGTATTTGGC (site TGTCAGCCTGC)”, the “recombinant UMI read abundance (log10)” value worked out at 0.0152.

As for “TGTCCACCATGGACCGGTTTTCCCGGTAATCCGTATTTGAC (site TGTACACCTGT)”, the “recombinant UMI read abundance (log10)” value is 0.

As for “TGTCCACCATGGACCGGTTTTCCCGGTAATCCGTATTTGAC (site TGTCCACCTGT)”, the “recombinant UMI read abundance (log10)” value stood at 0.

With “TGTCCACCATGGACCGGTTTTCCCGGTAATCCGTATTTGAC (site TGTGCACCTGT)”, the “recombinant UMI read abundance (log10)” value worked out at 0.

Take “TGTCCACCATGGACCGGTTTTCCCGGTAATCCGTATTTGAC (site TGTTCACCTGT)”: the “recombinant UMI read abundance (log10)” value is 0. For “TGTCCAGCATGGACCGGTTTTCCCGGTAATCCGTATTTGTG (site TGTCCAGCTCA)”, the “recombinant UMI read abundance (log10)” value was 0.0483. On to “TGTCCTACATGGACCGGTTTTCCCGGTAATCCGTATTTGTG (site TGTCCTACTCA)”, for which the “recombinant UMI read abundance (log10)” value turned out to be 0.266. Consider “TGTCGTCCATGGACCGGTTTTCCCGGTAATCCGTATTTGAG (site TGTCGTCCTCT)”, for which the “recombinant UMI read abundance (log10)” value was 0.0062.

For the sequence “TGTGACGCATGGACCGGTTTTCCCGGTAATCCGTATTTGTG (site TGTGACGCTCA)”, the “recombinant UMI read abundance (log10)” value was 0.239. The same measure for “TGTGATGCATGGACCGGTTTTCCCGGTAATCCGTATTTGAC (site TGTGATGCTGT)”: 1.65; for “TGTGCTGCATGGACCGGTTTTCCCGGTAATCCGTATTTGTA (site TGTGCTGCTTA)”: 0.0197; for “TGTGGCTCATGGACCGGTTTTCCCGGTAATCCGTATTTGCT (site TGTGGCTCTAG)”: 1.33.

(Values after the supplement of paper PMC11208160.)
